Assay results as given in PMC6001375, “CLERK is a novel receptor kinase required for sensing of root-active CLE peptides in Arabidopsis” (Development (Cambridge, England), 2018).
Where no end group is shown, it is not given here. [ ]: non-standard residue; d: D form. Hyp = O=C(O)[C@@H]1C[C@@H](O)CN1

How the values were obtained:
CLAVATA 1 (CLV1) = conditions: ref Brand et al., 2000; Clark et al., 1995; Fletcher et al., 1999; cited from earlier work
Description: (§1) The endogenous CLAVATA3/EMBRYO SURROUNDING REGION (CLE) peptides of plants are secreted as propeptides and processed to yield bioactive 12-14 amino acid long ligands ([Cock and McCormick, 2001]; [Ito et al., 2006]; [Kondo et al., 2006]). The Arabidopsis thaliana genome contains 32 CLE genes, which encode 27 distinct CLE peptides ([Goad et al., 2016]; [Ito et al., 2006]; [Strabala et al., 2006]). Exogenous application of chemically synthesized CLE peptides at nanomolar concentrations frequently suppresses Arabidopsis root growth in tissue culture ([Depuydt et al., 2013]; [Fiers et al., 2005]; [ ...

SERKs with PXY = conditions: ref Hazak et al., 2017; Santiago et al., 2016; Zhang et al., 2016a,b; cited from earlier work
Description: In numerous cases, ligand sensing by LRR-RKs requires interaction with co-receptor kinases ([Brandt and Hothorn, 2016]; [Hazak and Hardtke, 2016]; [Katsir et al., 2011]; [Li and Tax, 2013]). […] SERKs have also been implicated in PXY-mediated CLE41/44 signaling, although binding of PXY-CLE41/44 to ...

[1] = test system: PHLOEM INTERCALATED WITH XYLEM (PXY); conditions: ref Etchells and Turner, 2010; Fisher and Turner, 2007; Hirakawa et al., 2008; Morita et al., 2016; cited from earlier work
Description: as §1

[2] = test system: PXY ectodomain with CLERK/At5g63710 ectodomains; assay: Analytical size-exclusion chromatography, PXY + CLERK/At5g63710 ectodomains; type: binding, Arabidopsis thaliana; conditions: 50 µM peptide
Procedure: (§2) Isolation of recombinant proteins and analytical gel filtrations were carried out as described previously ([Hazak et al., 2017]) with small adjustments. The coding sequences for BAM1-ECD (amino acids 20-637), BAM3-ECD (30-651), PXY-ECD (30-647), NIK1-ECD (32-248), NIK2-ECD (33-248), NIK3-ECD (26-238), CLERK-ECD (28-236) and At5G63710-ECD (51-224) were amplified from Arabidopsis thaliana cDNA using PfuX7 polymerase. All ECD-coding sequences were then cloned into a modified pFAST-BAC1 vector (Geneva Biotech) by GIBSON cloning, resulting in the addition of the azurocidin signal peptide sequence to the 5′-end, and of a 2×-STREP-9×HIS tag to the 3′-end of the ECD sequences. These plasmids, after being confirmed by sequencing, were transformed into Escherichia coli DH10MultiBac (Geneva Biotech) followed by the extraction of the resulting bacmids. Transfection of the bacmids into Spodoptera frugiperda Sf9 cells with Profectin (AB Vector) was carried out to produce and amplify the respective virus. Recombinant secreted expression of the proteins was carried out by addition of virus to Trichoplusia ni Tnao38 cells to reach a viral multiplicity of 1 and incubation of the cells for 3 days. […] Concentrations of the pure proteins were assessed by measuring their absorbance at 280 nm (NanoDrop Lite; Thermo Scientific) and subsequent correction with their respective extinction coefficient. […]

[3] = test system: PXY ectodomain with NIK1/2/3 ectodomains; assay: Analytical size-exclusion chromatography, PXY + NIK1/2/3 ectodomains; type: binding, Arabidopsis thaliana; conditions: Fig. S3F; 50 µM peptide; pH 5.0
Procedure: as §2

[4] = target: T1, BARELY ANY MERISTEM 1 (BAM1) ectodomain (Arabidopsis thaliana, UniProt O49545 20-637); assay: ITC
T1 chain: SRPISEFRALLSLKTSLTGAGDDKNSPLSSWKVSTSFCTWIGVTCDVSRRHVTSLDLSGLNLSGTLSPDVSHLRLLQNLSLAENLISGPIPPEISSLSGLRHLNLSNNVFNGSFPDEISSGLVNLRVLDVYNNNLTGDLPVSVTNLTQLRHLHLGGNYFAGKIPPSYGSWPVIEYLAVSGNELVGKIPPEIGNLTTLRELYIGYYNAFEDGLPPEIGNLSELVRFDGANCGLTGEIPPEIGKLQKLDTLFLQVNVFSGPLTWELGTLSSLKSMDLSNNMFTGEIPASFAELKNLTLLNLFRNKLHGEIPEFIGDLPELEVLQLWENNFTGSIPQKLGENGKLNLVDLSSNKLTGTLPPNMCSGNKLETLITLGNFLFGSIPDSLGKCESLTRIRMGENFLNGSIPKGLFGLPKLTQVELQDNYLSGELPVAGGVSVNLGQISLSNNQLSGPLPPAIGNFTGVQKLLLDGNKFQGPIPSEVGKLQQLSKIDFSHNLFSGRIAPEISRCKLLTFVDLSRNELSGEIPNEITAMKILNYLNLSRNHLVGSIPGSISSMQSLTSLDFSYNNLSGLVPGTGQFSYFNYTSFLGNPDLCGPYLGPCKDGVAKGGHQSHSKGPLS

[5] = target: T2, BARELY ANY MERISTEM 1 (BAM1) ectodomain (Arabidopsis thaliana, UniProt O49545 20-637); assay: ITC; Nano ITC, 25°C, 20 mM citrate (pH 5.0), 150 mM NaCl; peptide in the syringe, ectodomain in the cell: 400 µM CLE26 or CLE45 into 30 µM CLERK-ECD; 80 µM CLE9 into 13.8 µM BAM1-ECD; conditions: both partners purified
T2 construct: BAM1, LRR receptor kinase of Arabidopsis thaliana, extracellular domain, amino acids 20-637; The azurocidin signal peptide was added at the N-terminus for secretion; also called BAM1-ECD
T2 sequence (looked up): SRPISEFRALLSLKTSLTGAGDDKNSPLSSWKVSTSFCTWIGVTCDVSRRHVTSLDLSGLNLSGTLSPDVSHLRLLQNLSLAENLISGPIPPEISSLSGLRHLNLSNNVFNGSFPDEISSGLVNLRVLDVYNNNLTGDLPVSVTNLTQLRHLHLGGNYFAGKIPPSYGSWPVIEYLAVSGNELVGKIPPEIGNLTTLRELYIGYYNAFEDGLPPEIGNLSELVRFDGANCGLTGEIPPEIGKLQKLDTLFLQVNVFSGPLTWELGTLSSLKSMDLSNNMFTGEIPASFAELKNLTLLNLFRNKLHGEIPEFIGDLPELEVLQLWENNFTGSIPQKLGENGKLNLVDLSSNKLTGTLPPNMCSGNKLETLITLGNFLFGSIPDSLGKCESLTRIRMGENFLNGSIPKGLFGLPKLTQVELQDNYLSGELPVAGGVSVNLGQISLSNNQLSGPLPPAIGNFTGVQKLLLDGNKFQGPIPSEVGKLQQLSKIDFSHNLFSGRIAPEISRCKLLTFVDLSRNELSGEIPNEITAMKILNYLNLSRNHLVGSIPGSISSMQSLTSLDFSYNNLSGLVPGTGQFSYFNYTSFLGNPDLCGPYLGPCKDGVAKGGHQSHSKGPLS

CLV3: prototypical CLV3 peptide, directly bound by CLV1 to regulate stem cell homeostasis in shoot meristems (RTVPSGPDPLHHH; not fully specified; ends and bridges not checked; UniProt Q9XF04 70-82, looked up)
Binding to CLV1 (CLAVATA 1 (CLV1)): directly binds

HEVPSGPNPISN [CLE41, identical CLE41 and CLE44 peptides, perceived by PXY]
Binding of PXY-CLE41/44 to SERKs (SERKs with PXY): comparatively weak
Perception by PXY [1]: perceives
Elution of PXY ectodomain with CLERK/At5g63710 ectodomains ([2]; Fig. S3C, pH 5.0): elute as monomers
Peptide-dependent binding of CLERK ectodomain to PXY ectodomain ([2]; gel filtration, 20 mM citrate (pH 5.0), 150 mM NaCl): Neither did CLERK ectodomain bind to the BAM1 ectodomain or the PXY ectodomain
Elution of PXY ectodomain with NIK1/2/3 ectodomains [3]: elute as monomers

B1: CLE9 peptide (peptide)
peptide: RLV[Hyp]SG[Hyp]NPLHN
notes: CLE9 peptide of Arabidopsis thaliana, 12 residues; source: synthetic peptide (PSL GmbH)
Kd [4]: 12.7 nM
binding result [5]: binds
